US7211587B2, “Quinoline derivatives and quinazoline derivatives having azolyl group” (Kirin Beer Kabushiki Kaisha, priority 2001, dated 2007)
pIC50: −log10 of the molar value.

Biological target: T1, human KDR (Homo sapiens, UniProt P35968)
T1 construct: expressed in transfected cells; host or cells: NIH 3T3 cells (mouse fibroblasts) stably expressing human KDR
Experiment: Inhibitory activity against KDR phosphorylation by ELISA (VEGF-stimulated NIH 3T3 cells expressing human KDR)
Type: cell-based
Conditions: VEGF 100 ng/ml, compound 1 hr, read-out: IC50 (inhibition of KDR phosphorylation)
Method: The harvested cells were inoculated into wells of a collagen-type one-coat 96-well flat-bottom plate, each containing the same medium, in an amount of 1.5×10^4 per well, followed by cultivation at 37° C. overnight. The medium was then replaced by a DMEM medium containing 0.1% fetal calf serum. A solution of a test compound in dimethyl sulfoxide was added to each well, and the cultivation was continued at 37° C. for additional one hr. A human recombinant vascular endothelial growth factor (hereinafter abbreviated to “VEGF”) was added to a final concentration of 100 ng/ml, and the stimulation of cells was carried out at 37° C. for 2 min. The medium was removed, the cells were washed with phosphate buffered saline (pH 7.4), and 50 μl of a solubilization buffer (20 mM HEPES (pH 7.4), 150 mM NaCl, 0.2% Triton X-100, 10% glycerol, 5 mM sodium orthovanadylate, 5 mM disodium ethylenediaminetetraacetate, and 2 mM Na4P2O7) was then added thereto. The mixture was shaken at 4° C. for 2 hr to prepare a cell extract.
Separately, phosphate buffered saline (50 μl, pH 7.4) containing 5 μg/ml of an anti-phospho-tyrosine antibody (PY20; purchased from Transduction Laboratories) was added to a microplate for ELISA (Maxisorp; purchased from NUNC), followed by standing at 4° C. overnight to form a solid phase on the wells. After washing of the plate, 300 μl of a blocking solution was added, followed by standing at room temperature for 2 hr to perform blocking. After washing, the whole quantity of the cell extract was transferred to the wells, and the plate was then allowed to stand at 4° C. overnight. After washing, an anti-KDR antibody (purchased from Santa Cruz) was allowed to react at room temperature for one hr, and, after washing, a peroxidase-labeled anti-rabbit Ig antibody (purchased from Amersham) was allowed to react at room temperature for one hr. After washing, a chromophoric substrate for peroxidase (purchased from Sumitomo Bakelite Co., Ltd.) was added thereto to initiate a reaction. After a suitable level of color development, a reaction termination solution was added to stop the reaction, and the absorbance at 450 nm was measured with a microplate reader. The KDR phosphorylation activity for each well was determined by presuming the absorbance with the addition of VEGF and without the addition of the medicament to be 100% KDR phosphorylation activity and the absorbance without the addition of the medicament and VEGF to be 0% KDR phosphorylation activity.

T1 sequence (P35968 20-1356): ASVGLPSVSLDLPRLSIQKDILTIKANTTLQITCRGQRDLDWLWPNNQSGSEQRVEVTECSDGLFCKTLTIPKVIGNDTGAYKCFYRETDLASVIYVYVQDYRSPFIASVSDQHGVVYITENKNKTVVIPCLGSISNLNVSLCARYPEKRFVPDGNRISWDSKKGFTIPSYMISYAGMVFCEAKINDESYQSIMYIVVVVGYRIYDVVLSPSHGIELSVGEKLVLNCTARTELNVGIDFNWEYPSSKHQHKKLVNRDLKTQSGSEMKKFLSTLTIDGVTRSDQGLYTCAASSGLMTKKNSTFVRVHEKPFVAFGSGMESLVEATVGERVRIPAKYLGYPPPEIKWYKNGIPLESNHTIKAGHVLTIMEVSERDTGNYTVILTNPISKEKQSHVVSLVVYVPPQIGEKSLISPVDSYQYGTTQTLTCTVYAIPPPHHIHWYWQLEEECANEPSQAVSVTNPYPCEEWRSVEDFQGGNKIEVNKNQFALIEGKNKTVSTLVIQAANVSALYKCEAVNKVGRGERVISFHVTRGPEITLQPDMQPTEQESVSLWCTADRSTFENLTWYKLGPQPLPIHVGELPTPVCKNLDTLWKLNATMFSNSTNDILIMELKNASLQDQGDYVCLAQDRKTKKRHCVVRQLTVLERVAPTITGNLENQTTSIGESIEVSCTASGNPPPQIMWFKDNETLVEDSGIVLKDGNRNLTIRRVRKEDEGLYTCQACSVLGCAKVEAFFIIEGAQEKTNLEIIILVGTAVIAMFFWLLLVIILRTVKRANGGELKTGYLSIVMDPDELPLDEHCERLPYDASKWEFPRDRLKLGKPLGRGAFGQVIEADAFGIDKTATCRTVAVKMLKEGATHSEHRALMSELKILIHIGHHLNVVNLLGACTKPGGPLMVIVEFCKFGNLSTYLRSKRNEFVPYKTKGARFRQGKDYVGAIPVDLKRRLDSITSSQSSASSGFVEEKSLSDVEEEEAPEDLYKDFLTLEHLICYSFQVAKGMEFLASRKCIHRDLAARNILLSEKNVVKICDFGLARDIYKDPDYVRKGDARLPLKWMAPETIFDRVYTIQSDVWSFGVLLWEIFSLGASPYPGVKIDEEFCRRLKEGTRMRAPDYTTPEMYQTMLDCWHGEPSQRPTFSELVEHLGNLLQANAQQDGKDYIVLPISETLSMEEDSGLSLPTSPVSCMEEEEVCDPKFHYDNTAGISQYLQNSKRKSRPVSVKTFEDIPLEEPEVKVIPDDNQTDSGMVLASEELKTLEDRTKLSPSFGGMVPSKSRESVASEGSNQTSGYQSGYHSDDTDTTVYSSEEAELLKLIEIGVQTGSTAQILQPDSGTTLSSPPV

SMILES	pIC50
COc1cc2nccc(Oc3ccc(NC(=O)Nc4ccon4)cc3Cl)c2cc1OC [Ex. 1, N-{3-Chloro-4-[(6,7-dimethoxy-4-quinolyl)oxy]phenyl}-N′-(3-isoxazolyl)urea]	8.64
COc1cc2nccc(Oc3ccc(NC(=O)Nc4cc(C)no4)cc3Cl)c2cc1OC [Ex. 2, N-{3-Chloro-4-[(6,7-dimethoxy-4-quinolyl)oxy]phenyl}-N′-(3-methyl-5-isoxazolyl)urea]	8.70
COc1cc2ncnc(Oc3ccc(NC(=O)Nc4cc(C)on4)cc3)c2cc1OC [Ex. 10, N-{4-[(6,7-Dimethoxy-4-quinazolinyl)oxy]-phenyl}-N′-(5-methyl-3-isoxazolyl)urea]	8.44
COc1cc2ncnc(Oc3ccc(NC(=O)Nc4cc(C)no4)cc3)c2cc1OC [Ex. 11, N-{4-[(6,7-Dimethoxy-4-quinazolinyl)oxy]-phenyl}-N′-(3-methyl-5-isoxazolyl)urea]	8.03
COc1cc2ncnc(Oc3ccc(NC(=O)Nc4cc(C)on4)c(Cl)c3)c2cc1OC [Ex. 12, N-{2-Chloro-4-[(6,7-dimethoxy-4-quinazolinyl)oxy]phenyl}-N′-(5-methyl-3-isoxazolyl)urea]	> 9.00
COc1cc2ncnc(Oc3ccc(NC(=O)Nc4cc(C)no4)c(Cl)c3)c2cc1OC [Ex. 13, N-{2-Chloro-4-[(6,7-dimethoxy-4-quinazolinyl)oxy]phenyl}-N′-(3-methyl-5-isoxazolyl)urea]	8.66
COc1cc2ncnc(Oc3ccc(NC(=O)Nc4cc(C)on4)cc3Cl)c2cc1OC [Ex. 14, N-{3-Chloro-4-[(6,7-dimethoxy-4-quinazolinyl)oxy]phenyl}-N′-(5-methyl-3-isoxazolyl)urea]	8.36
COc1cc2ncnc(Oc3ccc(NC(=O)Nc4cc(C)no4)cc3Cl)c2cc1OC [Ex. 15, N-{3-Chloro-4-[(6,7-dimethoxy-4-quinazolinyl)oxy]phenyl}-N′-(3-methyl-5-isoxazolyl)urea]	7.87
COc1cc2ncnc(Oc3ccc(NC(=O)Nc4cc(C)ns4)cc3)c2cc1OC [Ex. 16, N-{4-[(6,7-Dimethoxy-4-quinazolinyl)oxy]-phenyl}-N′-(3-methyl-5-isothiazolyl)urea]	7.26
COc1cc2ncnc(Oc3ccc(NC(=O)Nc4cc(C)ns4)c(Cl)c3)c2cc1OC [Ex. 17, N-{2-Chloro-4-[(6,7-dimethoxy-4-quinazolinyl)oxy]phenyl}-N′-(3-methyl-5-isothiazolyl)-urea]	8.31
COc1cc2ncnc(Oc3ccc(NC(=O)Nc4cc(C)ns4)cc3Cl)c2cc1OC [Ex. 18, N-{3-Chloro-4-[(6,7-dimethoxy-4-quinazolinyl)oxy]phenyl}-N′-(3-methyl-5-isothiazolyl)-urea]	7.16
COc1cc2nccc(Oc3ccc(NC(=O)Nc4ccn[nH]4)cc3Cl)c2cc1OC [Ex. 19, N-{3-Chloro-4-[(6,7-dimethoxy-4-quinolyl)oxy]phenyl}-N′-(1H-5-pyrazolyl)urea]	7.76
COc1cc2nccc(Oc3ccc(NC(=O)Nc4ccn[nH]4)c(F)c3)c2cc1OC [Ex. 20, N-{4-[(6,7-Dimethoxy-4-quinolyl)oxy]-2-fluorophenyl}-N′-(1H-5-pyrazolyl)urea]	8.38
COc1cc2nccc(Oc3ccc(NC(=O)Nc4nc(C)c(C)s4)c(C(F)(F)F)c3)c2cc1OC [Ex. 26, N-[4-[(6,7-Dimethoxy-4-quinolyl)oxy]-2-(trifluoromethyl)phenyl]-N′-(4,5-dimethyl-1,3-thiazol-2-yl)urea]	8.30
COc1cc2nccc(Oc3ccc(NC(=O)Nc4nc(C(C)(C)C)cs4)c(F)c3)c2cc1OC [Ex. 30, N-[4-(Tert-butyl)-1,3-thiazol-2-yl]-N′-{4-[(6,7-dimethoxy-4-quinolyl)oxy]-2-fluorophenyl}urea]	7.54
CCOC(=O)Cc1csc(NC(=O)Nc2ccc(Oc3ccnc4cc(OC)c(OC)cc34)cc2Cl)n1 [Ex. 31, Ethyl 2-{2-[({2-chloro-4-[(6,7-dimethoxy-4-quinolyl)oxy]anilino}carbonyl)amino]-1,3-thiazol-4-yl}acetate]	7.47
COc1cc2nccc(Oc3ccc(NC(=O)Nc4ncc(Br)s4)c(Cl)c3)c2cc1OC [Ex. 32, N-(5-Bromo-1,3-thiazol-2-yl)-N′-{2-chloro-4-[(6,7-dimethoxy-4-quinolyl)oxy]phenyl}urea]	8.43

SMILES	pIC50
COc1cc2nccc(Oc3ccc(NC(=O)Nc4nc(C(C)(C)C)cs4)c(Cl)c3)c2cc1OC [Ex. 33, N-[4-(Tert-butyl)-1,3-thiazol-2-yl]-N′-{2-chloro-4-[(6,7-dimethoxy-4-quinolyl)oxy]phenyl}urea]	7.68
COc1cc2nccc(Oc3ccc(NC(=O)Nc4ncc(Cl)s4)c(Cl)c3)c2cc1OC [Ex. 34, N-{2-Chloro-4-[(6,7-dimethoxy-4-quinolyl)oxy]phenyl}-N′-(5-chloro-1,3-thiazol-2-yl)urea]	8.55
COc1cc2nccc(Oc3ccc(NC(=O)Nc4ncc(Br)s4)c(F)c3)c2cc1OC [Ex. 35, N-(5-Bromo-1,3-thiazol-2-yl)-N′-{4-[(6,7-dimethoxy-4-quinolyl)oxy]-2-fluorophenyl}urea]	8.72
COc1cc2nccc(Oc3ccc(NC(=O)Nc4nc(C)c(C(C)=O)s4)c(F)c3)c2cc1OC [Ex. 36, N-(5-Acetyl-4-methyl-1,3-thiazol-2-yl)-N′-{4-[(6,7-dimethoxy-4-quinolyl)oxy]-2-fluorophenyl}urea]	8.92
COc1cc2nccc(Oc3ccc(NC(=O)Nc4ncc(Cl)s4)c(F)c3)c2cc1OC [Ex. 37, N-(5-Chloro-1,3-thiazol-2-yl)-N′-{4-[(6,7-dimethoxy-4-quinolyl)oxy]-2-fluorophenyl}urea]	8.72
COc1cc2ncnc(Oc3ccc(NC(=O)Nc4nccs4)cc3)c2cc1OC [Ex. 42, N-{4-[(6,7-Dimethoxy-4-quinazolinyl)oxy]-phenyl}-N′-(1,3-thiazol-2-yl)urea]	8.33
COc1cc2ncnc(Oc3ccc(NC(=O)Nc4ncc(C)s4)cc3)c2cc1OC [Ex. 43, N-{4-[(6,7-Dimethoxy-4-quinazolinyl)oxy]-phenyl}-N′-(5-methyl-1,3-thiazol-2-yl)urea]	> 9.00
COc1cc2ncnc(Oc3ccc(NC(=O)Nc4nc(C)cs4)cc3)c2cc1OC [Ex. 44, N-{4-[(6,7-Dimethoxy-4-quinazolinyl)oxy]-phenyl}-N′-(4-methyl-1,3-thiazol-2-yl)urea]	8.96
COc1cc2ncnc(Oc3ccc(NC(=O)Nc4nc(C)c(C)s4)cc3)c2cc1OC [Ex. 45, N-{4-[(6,7-Dimethoxy-4-quinazolinyl)oxy]-phenyl}-N′-(4,5-dimethyl-1,3-thiazol-2-yl)urea]	> 9.00
COc1cc2ncnc(Oc3ccc(NC(=O)Nc4nccs4)cc3Cl)c2cc1OC [Ex. 46, N-{3-Chloro-4-[(6,7-dimethoxy-4-quinazolinyl)oxy]phenyl}-N′-(1,3-thiazol-2-yl)urea]	8.13
COc1cc2ncnc(Oc3ccc(NC(=O)Nc4ncc(C)s4)cc3Cl)c2cc1OC [Ex. 47, N-{3-Chloro-4-[(6,7-dimethoxy-4-quinazolinyl)oxy]phenyl}-N′-(5-methyl-1,3-thiazol-2-yl)urea]	8.55
COc1cc2ncnc(Oc3ccc(NC(=O)Nc4nc(C)cs4)cc3Cl)c2cc1OC [Ex. 48, N-{3-Chloro-4-[(6,7-dimethoxy-4-quinazolinyl)oxy]phenyl}-N′-(4-methyl-1,3-thiazol-2-yl)urea]	8.36
COc1cc2ncnc(Oc3ccc(NC(=O)Nc4nc(C)c(C)s4)cc3Cl)c2cc1OC [Ex. 49, N-{3-Chloro-4-[(6,7-dimethoxy-4-quinazolinyl)oxy]phenyl}-N′-(4,5-dimethyl-1,3-thiazol-2-yl)urea]	8.51
CCc1nnc(NC(=O)Nc2ccc(Oc3ccnc4cc(OC)c(OC)cc34)cc2)s1 [Ex. 59, N-{4-[(6,7-Dimethoxy-4-quinolyl)oxy]phenyl}-N′-(5-ethyl-1,3,4-thiadiazol-2-yl)urea]	8.89
CCc1nnc(NC(=O)Nc2ccc(Oc3ccnc4cc(OC)c(OC)cc34)cc2C)s1 [Ex. 60, N-{4-[(6,7-Dimethoxy-4-quinolyl)oxy]-2-methylphenyl}-N′-(5-ethyl-1,3,4-thiadiazol-2-yl)urea]	> 9.00
CCc1nnc(NC(=O)Nc2ccc(Oc3ccnc4cc(OC)c(OC)cc34)c(C)c2C)s1 [Ex. 62, N-{4-[(6,7-Dimethoxy-4-quinolyl)oxy]-2,3-dimethylphenyl}-N′-(5-ethyl-1,3,4-thiadiazol-2-yl)urea]	8.82
CCc1nnc(NC(=O)Nc2ccc(Oc3ccnc4cc(OC)c(OC)cc34)cc2F)s1 [Ex. 63, N-{4-[(6,7-Dimethoxy-4-quinolyl)oxy]-2-fluorophenyl}-N′-(5-ethyl-1,3,4-thiadiazol-2-yl)urea]	> 9.00
